Where a name gives a salt, the structure may show the parent alone.
How the values were obtained:
[1] = LD50 / acute toxicity, intraperitoneal route; assay type: in vivo; details: i.p.; for Toxicity (Gleason): Gleason class in words, classes not defined
vertebral arteria = assay: Cerebral vasodilating activity: hematic flow at the vertebral arteria after i.v. administration; assay type: in vivo; details: i.v. (femoral vein), 5 mg/kg of vincamine/apovincamine, anesthetized dog, 4 animals per compound
Protocol: (§1) For the compounds of the present invention a number of pharmacological and pharmacokinetic tests have been carried out. […] As regards the pharmacological and pharmacodynamic activity, it has been studied on the percent variations of the hematic flow, as recorded at the vertebral arteria in the dog after administration of the tested compounds. As regards the pharmacokinetic tests, the compounds were administered per oral route to the Wistar rat, and the hematic levels at different times from the administration were measured.
The cerebral vasodilating activity was studied in the anestetized dog, by measuring, by means of Statham periarterial electromagnetic flowmeters, the hematic flow at the level of the […] which, in such animal species, constitutes the greatest blood supply to the brain.
The resuls are reported in the TABLE 2 (last column) as the percent variations of the flow measured at the level of the ledt vertebral arteria after the i.v. administration of the several compounds to be tested to groups of 4 animals for each compound. The results also confirm that the compounds of the invention are all endowed with a vasodilating activity at the level of the cerebral circulus, such an action being, for some compounds, much more remarkable than that of vincamine and apovincamine.

[2] = Hematic levels at different times after oral administration (absorption); assay type: in vivo, Wistar rat; details: 100 mg/kg expressed as vincamine/apovincamine, 5% carboxymethyl cellulose suspension; for Tmax: rat, blood, po, read-out: Max. conc. time (converted)
Protocol: as §1
For the evaluation of the absorption, all the compounds have been orally administered at the dosage of 100 mg/kg, expressed as vincamine and apovincamine, in form of a suspension in a 5% carboxymethyl cellulose solution.
The absorption was determined by evaulating the hematic levels at the following times (minutes) : 0, 30, 120, 240, 480, 10 hours and 12 hours, in order also to assess the time from the administration (max conc.time) the maximum absorption occurred.
The vincamine and apovincamine concentrations were assessed by chromatographic method.
For the evaluation of the prolonged action of the salts and of the adducts of vincamine and apovincamine the following criterium was adopted; as derivatives having a long-acting effect, there are considered those which, 120 minutes after the administration, show hematic levels higher than those obtained with vincamine and apovincamine.

Solubility = assay type: physicochemical; details: qualitative; for solubility in alcohol: alcohol (ethyl alcohol)

Compound | LD50 [1] [mg/kg] | Toxicity (Gleason) [1] | % increase (percent variation of hematic flow, left vertebral arteria) (vertebral arteria; 5 mg/kg) [%] | Max. conc. time ([2]; 100 mg/kg) [min] | solubility in alcohol (Solubility) | solubility in water (Solubility) | other results
CC[C@@]12C=C(C(=O)OC)n3c4c(c5ccccc53)CCN(CCC1)[C@H]42 [Apovincamine, apovincamine] | 2000 | negligible | 25.6 | 60 |  |  | 
CC[C@]12CCCN3CCc4c(n(c5ccccc45)[C@@](O)(C(=O)OC)C1)[C@@H]32 [Example 2.a, Vincamine 2,4-dihydroxy-benzoate] | 750 | modest | 24.8 | 120 | soluble |  | 
CC[C@@]12C=C(C(=O)OC)n3c4c(c5ccccc53)CCN(CCC1)[C@H]42 [Example 2.b, Apovineamine 2,4-dihydroxy-benzoate] | 650 | modest | 29.0 | 120 | soluble |  | solubility in the common (organic) solvents (Solubility; common organic solvents): not
CC[C@]12CCCN3CCc4c(n(c5ccccc45)[C@@](O)(C(=O)OC)C1)[C@@H]32 [Example 3.a, Vincamine glucose-1-phosphate] | 1150 | light | 29.0 | 240 |  | partially soluble | 
CC[C@@]12C=C(C(=O)OC)n3c4c(c5ccccc53)CCN(CCC1)[C@H]42 [Example 3.b, Apovincamine glucose-1-phosphate] | 850 | modest | 26.4 | 120 |  | soluble | 
CC[C@]12CCCN3CCc4c(n(c5ccccc45)[C@@](O)(C(=O)OC)C1)[C@@H]32 [Example 4.a, Vincamine glucose-1-phosphate, acid salt] | 700 | modest | 26.6 | 240 |  | soluble | 
CC[C@@]12C=C(C(=O)OC)n3c4c(c5ccccc53)CCN(CCC1)[C@H]42 [Example 4.b, Apovincamine glucose-1-phosphate, acid salt] | 600 | modest | 26.1 | 240 |  | soluble | 
CC[C@]12CCCN3CCc4c(n(c5ccccc45)[C@@](O)(C(=O)OC)C1)[C@@H]32 [Example 4.c, glucose-6-phosphate acid salt] | 800 | modest | 28.2 | 240 |  |  | 
CC[C@]12CCCN3CCc4c(n(c5ccccc45)[C@@](O)(C(=O)OC)C1)[C@@H]32 [Example 5.a, Vincamine 2,6-dihydroxybenzoate] | 550 | modest | 23.6 | 120 | insoluble | insoluble | 
CC[C@@]12C=C(C(=O)OC)n3c4c(c5ccccc53)CCN(CCC1)[C@H]42 [Example 5.b, Apovincamine 2,6-dihydroxybenzoate] | 750 | modest | 25.4 | 120 | poorly soluble | insoluble | 
CC[C@]12CCCN3CCc4c(n(c5ccccc45)[C@@](O)(C(=O)OC)C1)[C@@H]32 [Example 6.a, Vincamine 2,5-dihydroxybenzoate] | 800 | modest | 28.0 | 120 | insoluble | insoluble | 
CC[C@@]12C=C(C(=O)OC)n3c4c(c5ccccc53)CCN(CCC1)[C@H]42 [Example 6.b, Apovincamine 2,5-dihydroxybenzoate] | 750 | modest | 30.9 | 240 | insoluble | insoluble | 
CC[C@@]12C=C(C(=O)OC)n3c4c(c5ccccc53)CCN(CCC1)[C@H]42 [Example 12.b, Apovincamine furoate] |  |  | 24.0 | 240 | soluble | insoluble | 
CC[C@@]12C=C(C(=O)OC)n3c4c(c5ccccc53)CCN(CCC1)[C@H]42 [Example 13.b, Apovincamine D(+)-camphorsulfonate] |  |  | 37.4 | 120 | soluble | soluble | 
CC[C@]12CCCN3CCc4c(n(c5ccccc45)[C@@](O)(C(=O)OC)C1)[C@@H]32 [Example 15.a, nicotinate] | 900 | modest | 21.9 | 60 |  |  | 
CC[C@]12CCC[N+]3(C)CCc4c(n(c5ccccc45)[C@@](O)(C(=O)OC)C1)[C@H]23 (some centres unmarked) [Example 17.a, Vincamine methylsulfate] |  |  |  |  | soluble | soluble | % increase (percent variation of hematic flow, left vertebral arteria) (vertebral arteria): 28.4%; Tmax ([2]; 100 mg/kg): 1 h
CC[C@@]12C=C(C(=O)OC)n3c4c(c5ccccc53)CC[N+](C)(CCC1)[C@H]42 (some centres unmarked) [Example 17.b, Apovincamine methylsulfate] |  |  |  |  | poorly soluble | soluble | % increase (percent variation of hematic flow, left vertebral arteria) (vertebral arteria): 29.7%; Tmax ([2]; 100 mg/kg): 1 h
CC[C@@]12C=C(C(=O)OC)n3c4c(c5ccccc53)CCN(CCC1)[C@H]42 [Example 20.b, Apovincamine theophylline-7-acetate] |  |  | 27.2 | 120 |  | soluble | 
CC[C@@]12C=C(C(=O)OC)n3c4c(c5ccccc53)CCN(CCC1)[C@H]42 [Example 25.b, Apovincamine (D,L)-mandelate] |  |  | 34.5 | 120 | soluble | insoluble | 
CC[C@]12CCCN3CCc4c(n(c5ccccc45)[C@@](O)(C(=O)OC)C1)[C@@H]32 [Vincamine HCl, reference compound] |  |  |  |  |  |  | Toxicity (Gleason) ([1]; HCl): modest; LD50 ([1]; HCl): 800 mg/kg; % increase (percent variation of hematic flow, left vertebral arteria) (vertebral arteria; HCl, 5 mg/kg): 24.1%; Max. conc. time ([2]; HCl, 100 mg/kg): 20 min
Apovincamine tannate [Example 24.b] |  |  |  |  |  | insoluble | % increase (percent variation of hematic flow, left vertebral arteria) (vertebral arteria): 29.8%; Max. conc. time [2]: 480 min
glucose-6-phosphate [Example 3.c] | 1000 | light | 28.4 | 240 |  |  | 
glucose-6-phosphate [Example 3.d] | 900 | modest | 28.8 | 120 |  |  | 
glucose-6-phosphate disodium [Example 1.c] | 2000 | negligible |  |  |  |  | % increase (percent variation of hematic flow, left vertebral arteria) (vertebral arteria; disodium, 5 mg/kg): 26.3%; Max. conc. time ([2]; disodium, 100 mg/kg): 480 min
glucose-6-phosphate disodium [Example 1.d] | 2000 | negligible |  |  |  |  | % increase (percent variation of hematic flow, left vertebral arteria) (vertebral arteria; disodium, 5 mg/kg): 29.3%; Max. conc. time ([2]; disodium, 100 mg/kg): 120 min

— patent US4122179A, “Acid addition salts of vincamine and apovincamine” (priority 1976, dated 1978)
